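Following 48 hours of exposure in 96-well plates, responses at five concentrations were used to interpolate endpoints linearly. Here, GI50 denotes the concentration required for 50% inhibition of growth. TGI marks complete inhibition of growth.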

Assay in all cases: NCI tumour cell line growth inhibition, 48 h
The test system of assay [1] is EKVX NSCLC.
Assay [2] concerns CAKI-1 renal.
Assay [3] relates to A549 NSCLC.
In assay [4] the test system is NCI-H226 lung.
In assay [5] the test system is SF-268 CNS.
For assay [6], the system named is TK-10 renal.
Assay [7] deals with M14 melanoma.
Assay [8] deals with RPMI-8226 leukemia.
Assay [9] concerns LOX IMVI melanoma.
Assay [10] concerns IGROV1 ovarian.

With `CCOc1ccc(-c2oc(/C=N/NS(=O)(=O)c3ccc(C)cc3)c([N+](=O)[O-])c2-c2ccc(OCC)cc2)cc1`, the TGI was found to be 80 µM in assay [1]; 43.1 µM in [2]; 65.6 µM in [3]; 28.4 µM in [4]; 50.5 µM in assay [5]; 70.3 µM in assay [6]. The TGI in [7] came out at 27.7 µM; in assay [8], 5.12 µM; in assay [9] it was 12.6 µM; in assay [10], 32.3 µM.

In the case of `Oc1[nH]c2ccccc2c1/C=c1/cc2c(c(-c3ccc(C(F)(F)F)cc3)n1)=Nc1ccccc1-2`, the GI50 is 10.5 µM in [1]; 3.96 µM in assay [2]; 4.79 µM in assay [3]; 36.4 µM in [4]; 10.3 µM in assay [5]; 5.54 µM in [6]. Further, the GI50 in assay [7] is 3.89 µM; in assay [8], 2.93 µM; in [9] it was 8.87 µM; in assay [10], 8.25 µM. Moreover, the TGI in assay [1] was over 100 µM; in assay [2] it was 27.5 µM; in assay [3], 28.8 µM; in assay [4], over 100 µM; in assay [5], 38.8 µM; in [6] it was 22.9 µM. The TGI was 17.4 µM in assay [7], 13.7 µM in assay [8], 22.5 µM in assay [9] and 28.8 µM in assay [10].

As to `C=C1CC(Cn2cc(Br)c(=O)[nH]c2=O)(c2ccc(-c3ccccc3)cc2)OC1=O` (stereo not given), the TGI in assay [1] stood at 7.42 µM; in assay [2], 4.41 µM; in [3], 21.6 µM; in assay [4], 4.31 µM; in assay [5] it was 4.64 µM; in assay [6], 0.842 µM. Moreover, the TGI in assay [7] was 3.12 µM; in assay [8], 0.574 µM; in assay [9], 2.61 µM; in assay [10], 2.96 µM.

For the compound `CCCCCCOP(=O)(OCCCCCC)OC(C(=O)OC)C(F)(F)F` (stereo not given), the TGI in [1], in [2], in assay [3], in [4], in [5] and in [6] was over 100 µM in each case. Besides, the TGI in [7], in assay [8], in assay [9] and in [10] was over 100 µM each time.

As for `COC1=CC(=O)C2=C(C1=O)[C@H]1CC[C@]3(C)[C@@H](OC(C)=O)CC[C@H]3[C@@H]1CC2`, the TGI in assay [1] was 28.5 µM; in assay [2], over 100 µM; in [3], over 100 µM; in assay [4] it was over 100 µM; in [5], over 100 µM; in [6], over 100 µM. Further, the TGI is over 100 µM in assay [7], over 100 µM in [8], 36.7 µM in [9] and over 100 µM in [10].

For the compound `CCN(CC)CCCCC1CCN(CC(=O)N2c3ccccc3NC(=O)CC2C)CC1` (stereo not given), the TGI in assay [1], in assay [2], in [3], in assay [4], in assay [5] and in assay [6] was over 100 µM each time. Also, the TGI in assay [7] is over 100 µM; in [8], over 100 µM; in [9], 47.6 µM; in [10] it was over 100 µM.

With `CC(=O)NC1=C(NCC(C)C)C(=O)c2ccccc2C1=O`, the TGI in [1] was 59.9 µM; in [2], 30.6 µM; in [3] it was over 100 µM; in assay [4], 29.5 µM; in assay [5] it was 46.3 µM; in assay [6], 40.9 µM. Also, the TGI in assay [7] was 33.2 µM; in assay [8], over 100 µM; in assay [9], 30.1 µM; in assay [10], over 100 µM.

As for `O=[N+]([O-])/C=C/c1cn(CCCCCn2cc(/C=C/[N+](=O)[O-])c3ccccc32)c2ccccc12`, the TGI was over 37.4 µM in [1]; over 53.6 µM in assay [2]; 11.7 µM in assay [3]; 4.36 µM in [4]; 15.6 µM in assay [5]; 5.37 µM in assay [6]. Further, the TGI was 15.1 µM in [7], over 100 µM in [8], 1.51 µM in [9] and 5.81 µM in assay [10].

Regarding `Cc1ccc(/C=C2\CN(C)CC3C2=NC(=S)NC3c2ccc(C)cc2)cc1` (stereo not given), the TGI in [1] was over 40.3 µM; in assay [2] it was over 100 µM; in assay [3], over 100 µM; in assay [4], over 100 µM; in [5], over 100 µM; in [6], over 100 µM. The TGI in assay [7] is over 100 µM; in [8], over 100 µM; in assay [9] it was over 100 µM; in assay [10], over 80.1 µM.

Consider `O=c1c2c(nc3n1CCC3)sc1c(O)c(Br)ccc12`, for which the TGI was 68.6 µM in assay [1]; over 100 µM in assay [2]; 29.9 µM in assay [3]; 73.2 µM in [4]; over 100 µM in assay [5]; 60.5 µM in assay [6]. In addition, the TGI is over 100 µM in [7], 53.6 µM in [8], 27.1 µM in [9] and 82.5 µM in assay [10].

In the case of `COc1ccc(C=Nc2ccc(-c3nc4ccccc4[nH]3)cc2)cc1OC`, the TGI in assay [1], in assay [2], in [3], in assay [4], in assay [5] and in assay [6] was over 100 µM in each case. Moreover, the TGI in assay [7], in [8], in assay [9] and in assay [10] was over 100 µM each time.

For `CCCNC(=O)CCC(C)[C@H]1CCC2C3C(C[C@H](OC(C)=O)[C@@]21C)[C@@]1(C)CCC2(C[C@H]1C[C@H]3OC(C)=O)OOC1(CCCCC1)OO2` (stereo not given in full), the TGI in assay [1] is 3.95 µM; in [2] it was 1.54 µM; in assay [3], 2.82 µM; in assay [4], over 57.2 µM; in [5], 10.4 µM; in assay [6], 4.32 µM. In addition, the TGI in assay [7] was over 100 µM; in assay [8], 4.68 µM; in assay [9], 3.52 µM; in [10], 2.22 µM.
